# System: DOHH2 and TMD8 DLBCL cells
# Assay: Gene expression profiling (HumanHT-12 v4 BeadChip, limma), ST7612AA1 300 nM 8 hrs vs DMSO
# Type: cell-based, human
# Settings: 300 nM 8 hrs vs DMSO
smiles,measurement,value
CC(=O)SCCCCC[C@H](NC(=O)[C@H]1CCC(=O)N1)C(=O)Nc1ccccc1 [ST7612AA1],log ratio TCEA2 (probe ILMN_1665526),8.50E-01
same,log ratio TCEAL3 (probe ILMN_1734190),7.88E-01
same,log ratio TCERG1 (ILMN_1706839),-8.49E-01
same,log ratio TCFL5 (ILMN_1814247),6.07E-01
same,log ratio TCTN1 (probe ILMN_1685124),7.81E-01
same,log ratio TESK2 (probe ILMN_1654370),8.37E-01
same,log ratio TFB2M (ILMN_2067709),-7.83E-01
same,log ratio THOC6 (ILMN_1679880),-5.93E-01
same,log ratio THUMPD2 (ILMN_1787511),-6.05E-01
same,log ratio TIMM10 (ILMN_1765332),-1.04E+00
same,log ratio TLK1 (ILMN_1811029),-9.26E-01
same,log ratio TMBIM4 (ILMN_1664750),-9.76E-01
same,log ratio TMED1 (ILMN_1693045),-9.13E-01
same,log ratio TMEM14A (probe ILMN_1785191),7.29E-01
same,log ratio TMEM49 (probe ILMN_1692754),8.49E-01
same,log ratio TMEM154 (probe ILMN_2088124),6.89E-01
same,log ratio TMEM179B (ILMN_3241979),5.96E-01
same,log ratio TMEM184B (ILMN_1747460),6.31E-01
same,log ratio TMEM199 (ILMN_1748481),-6.12E-01
same,log ratio TMOD2 (probe ILMN_3250273),7.57E-01
same,log ratio TMPO (ILMN_1768816),-8.22E-01
same,log ratio TNFRSF17 (ILMN_1768016),-1.76E+00
same,log ratio TOB1 (ILMN_1672004),6.63E-01
same,log ratio TPRG1L (probe ILMN_1727479),7.86E-01
same,log ratio TPST1 (probe ILMN_1651950),7.51E-01
same,log ratio TPST2 (probe ILMN_1695432),7.18E-01
same,log ratio TRAFD1 (probe ILMN_1758250),8.52E-01
same,log ratio TRIM4 (ILMN_2323385),6.43E-01
same,log ratio TRIM6 (ILMN_1656910),5.98E-01
same,log ratio TRIM8 (ILMN_1746704),-8.66E-01
same,log ratio TRIM21 (ILMN_1678054),-8.09E-01
same,log ratio TRIM22 (ILMN_1779252),-8.73E-01
same,log ratio TRIP6 (ILMN_1713990),-1.16E+00
same,log ratio TRMT1 (ILMN_1812940),-8.45E-01
same,log ratio TRMT11 (ILMN_1805481),-8.20E-01
same,log ratio TSEN2 (ILMN_1746393),-8.42E-01
same,log ratio TSPAN4 (ILMN_2340027),5.99E-01
same,log ratio TTC27 (ILMN_1757730),-1.28E+00
same,log ratio TTLL12 (ILMN_1663113),-6.01E-01
same,log ratio TUBG2 (ILMN_1701052),6.65E-01
same,log ratio TXNDC14 (ILMN_1799367),-8.38E-01
same,log ratio TYMS (ILMN_1806040),-1.10E+00
same,log ratio TYSND1 (ILMN_1775677),-1.15E+00
same,log ratio TYW3 (ILMN_1726842),-9.88E-01
same,log ratio U2AF2 (ILMN_1768930),-1.25E+00
same,log ratio UBE2A (probe ILMN_2307455),7.18E-01
same,log ratio UBE2C (ILMN_2265654),-7.99E-01
same,log ratio UBE2D4 (ILMN_1707084),-8.99E-01
same,log ratio UBE2H (ILMN_1757644),6.49E-01
same,log ratio UBE2J1 (ILMN_1713759),-1.05E+00
same,log ratio UBTD1 (probe ILMN_1794914),8.56E-01
same,log ratio UBXN8 (ILMN_1731891),-8.44E-01
same,log ratio UCK2 (ILMN_1768662),-9.43E-01
same,log ratio UCP2 (probe ILMN_1685625),7.30E-01
same,log ratio UNC45A (ILMN_1726434),6.72E-01
same,log ratio UNC84A (probe ILMN_1772316),7.21E-01
same,log ratio UNG (ILMN_1683120),-1.39E+00
same,log ratio UPLP (probe ILMN_3236765),7.46E-01
same,log ratio UPP1 (ILMN_1798256),6.07E-01
same,log ratio URB2 (ILMN_3249406),-5.93E-01
same,log ratio USP13 (ILMN_3251526),-5.97E-01
same,log ratio VASH2 (probe ILMN_1692698),7.31E-01
same,log ratio VPS8 (probe ILMN_1678268),7.47E-01
same,log ratio VRK2 (ILMN_1750088),-9.87E-01
same,log ratio VRK3 (ILMN_1771697),6.75E-01
same,log ratio WARS2 (ILMN_2323979),-5.97E-01
same,log ratio WDR12 (ILMN_1770692),-7.92E-01
same,log ratio WDR12 (ILMN_2045729),-8.64E-01
same,log ratio WDR19 (probe ILMN_1655117),7.77E-01
same,log ratio WIBG (ILMN_1751431),-1.01E+00
same,log ratio WIPI2 (ILMN_2321292),6.22E-01
same,log ratio WNK1 (ILMN_1876924),6.14E-01
same,log ratio YARS2 (ILMN_1782635),-8.22E-01
same,log ratio YDJC (ILMN_1812580),-8.57E-01
same,log ratio YPEL3 (ILMN_1791147),6.17E-01
